Laboratory results taken from ChEMBL document CHEMBL1909046, “DrugMatrix in vitro pharmacology data”.

What was measured:
[1] = DRUGMATRIX: beta-Lactamase enzyme inhibition (substrate: Nitrocefin); design: species or system Bacillus cereus; settings: Not Active = under 50% inhibition at 10 µM
[2] = biological target: 5-hydroxytryptamine receptor 2B (Homo sapiens, UniProt P41595); format: cell membranes, CHO-K1, Membrane; settings: cho-k1; also: in other assays of this panel Not Active means under 50% inhibition at 10 µM
[3] = biological target: 5-hydroxytryptamine receptor 4 (Cavia porcellus, UniProt O70528); format: cell membranes, Dunkin-Hartley, Striatum, Membrane; also: in other assays of this panel Not Active means under 50% inhibition at 10 µM
[4] = DRUGMATRIX: Glutamate, AMPA radioligand binding (ligand: [3H] AMPA); format: cell membranes, Rattus norvegicus, Wistar, Cerebral cortex, Membrane; settings: Not Active = under 50% inhibition at 10 µM
[5] = biological target: Mitogen-activated protein kinase 1 (Homo sapiens, UniProt P28482); assay: DRUGMATRIX: Protein Serine/Threonine Kinase, ERK2 enzyme inhibition (substrate: Myelin Basic Protein); design: species or system Escherichia coli; settings: Not Active = under 50% inhibition at 10 µM
Cytochrome P450 2A6 = biological target: T1, Cytochrome P450 2A6 (Homo sapiens, UniProt P11509); settings: bti-tn-5b1-4; also: in other assays of this panel Not Active means under 50% inhibition at 10 µM
T1 sequence (P11509 whole entry): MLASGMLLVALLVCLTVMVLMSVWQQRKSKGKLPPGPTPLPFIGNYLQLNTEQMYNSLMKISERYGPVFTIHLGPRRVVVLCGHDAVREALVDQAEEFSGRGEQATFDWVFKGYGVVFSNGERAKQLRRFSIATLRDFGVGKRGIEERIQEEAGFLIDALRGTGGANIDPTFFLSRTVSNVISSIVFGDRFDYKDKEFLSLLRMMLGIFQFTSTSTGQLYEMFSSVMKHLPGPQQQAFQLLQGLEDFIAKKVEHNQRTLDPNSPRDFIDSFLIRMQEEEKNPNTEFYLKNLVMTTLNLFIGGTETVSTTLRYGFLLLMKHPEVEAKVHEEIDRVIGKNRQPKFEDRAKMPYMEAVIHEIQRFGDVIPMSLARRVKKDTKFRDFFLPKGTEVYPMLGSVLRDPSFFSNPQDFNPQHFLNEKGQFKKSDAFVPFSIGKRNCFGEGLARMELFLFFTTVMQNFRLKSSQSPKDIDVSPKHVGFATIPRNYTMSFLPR

5-hydroxytryptamine receptor 4, sequence (O70528 whole entry): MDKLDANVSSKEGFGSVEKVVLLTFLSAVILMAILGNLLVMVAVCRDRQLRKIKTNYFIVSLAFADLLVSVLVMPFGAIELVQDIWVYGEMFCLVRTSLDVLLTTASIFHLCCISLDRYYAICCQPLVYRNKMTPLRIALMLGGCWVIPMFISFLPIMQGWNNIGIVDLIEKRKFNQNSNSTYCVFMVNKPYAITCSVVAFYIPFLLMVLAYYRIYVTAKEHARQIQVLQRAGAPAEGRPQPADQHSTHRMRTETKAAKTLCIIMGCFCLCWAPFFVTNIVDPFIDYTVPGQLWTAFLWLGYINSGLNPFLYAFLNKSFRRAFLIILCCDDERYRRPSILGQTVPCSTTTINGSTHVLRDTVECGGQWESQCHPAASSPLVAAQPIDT
Mitogen-activated protein kinase 1, sequence (P28482 whole entry): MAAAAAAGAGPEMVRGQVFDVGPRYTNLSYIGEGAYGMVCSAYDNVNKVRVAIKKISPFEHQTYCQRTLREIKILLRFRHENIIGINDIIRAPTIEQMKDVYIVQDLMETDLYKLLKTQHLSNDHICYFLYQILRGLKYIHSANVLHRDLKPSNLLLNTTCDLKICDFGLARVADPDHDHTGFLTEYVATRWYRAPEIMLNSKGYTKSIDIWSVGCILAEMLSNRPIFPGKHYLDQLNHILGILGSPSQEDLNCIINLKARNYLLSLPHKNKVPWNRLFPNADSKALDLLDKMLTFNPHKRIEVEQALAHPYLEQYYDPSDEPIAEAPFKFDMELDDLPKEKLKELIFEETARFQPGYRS
5-hydroxytryptamine receptor 2B, sequence (P41595 whole entry): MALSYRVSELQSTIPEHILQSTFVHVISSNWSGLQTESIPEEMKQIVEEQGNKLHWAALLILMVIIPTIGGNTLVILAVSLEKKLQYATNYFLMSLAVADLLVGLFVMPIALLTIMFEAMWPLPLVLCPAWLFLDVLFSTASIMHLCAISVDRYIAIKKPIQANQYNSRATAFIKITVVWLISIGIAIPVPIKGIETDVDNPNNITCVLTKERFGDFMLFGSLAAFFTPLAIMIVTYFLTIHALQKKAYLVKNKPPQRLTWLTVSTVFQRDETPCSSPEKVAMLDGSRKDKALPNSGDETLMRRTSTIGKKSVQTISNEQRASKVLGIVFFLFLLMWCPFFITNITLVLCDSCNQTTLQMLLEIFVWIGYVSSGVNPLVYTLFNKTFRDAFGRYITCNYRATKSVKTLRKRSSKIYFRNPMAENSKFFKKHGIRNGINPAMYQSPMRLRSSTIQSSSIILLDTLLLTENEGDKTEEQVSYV

For `CO[C@H]1O[C@@H]2O[C@@]3(C)CC[C@H]4[C@H](C)CC[C@@H]([C@H]1C)[C@@]24OO3`, the IC50 [1] was “Not Active”, the Ki [1] was “Not Active” and the IC50 [2] was “Not Active”. For the same compound, the IC50 [3] was “Not Active”, the IC50 [4] was “Not Active” and the Ki [4] was “Not Active”. For the same compound, the IC50 [5] was “Not Active”, the IC50 (Cytochrome P450 2A6) was “Not Active” and the Ki (Cytochrome P450 2A6) was “Not Active”.

For `O=c1[nH]c2ccccc2c2ccccc12`, the IC50 [1] was “Not Active”, the Ki [1] was “Not Active” and the IC50 [2] was “Not Active”. For the same compound, the IC50 [3] was “Not Active”, the IC50 [4] was “Not Active” and the Ki [4] was “Not Active”. For the same compound, the IC50 [5] was “Not Active”, the IC50 (Cytochrome P450 2A6) was “Not Active” and the Ki (Cytochrome P450 2A6) was “Not Active”.

In the case of `COc1ccc(C[C@H](N)C(=O)N[C@H]2[C@@H](O)[C@H](n3cnc4c(N(C)C)ncnc43)O[C@@H]2CO)cc1` [PUROMYCIN], the IC50 [1] is reported as “Not Active”, the Ki [1] is reported as “Not Active” and the IC50 [2] is reported as “Not Active”. The IC50 [3] was “Not Active”, the IC50 [4] was “Not Active” and the Ki [4] was “Not Active”. The IC50 [5] was “Not Active”, the IC50 (Cytochrome P450 2A6) was “Not Active” and the Ki (Cytochrome P450 2A6) was “Not Active”.

With CHROMIC CHLORIDE the IC50 [1] was “Not Active”, the Ki [1] was “Not Active” and the IC50 [2] was “Not Active”. The Ki [2] was “Not Active”, the IC50 [3] was “Not Active” and the Ki [3] was “Not Active”. For the same compound, the IC50 [4] was “Not Active”, the Ki [4] was “Not Active” and the IC50 [5] was “Not Active”. For the same compound, the Ki [5] was “Not Active”, the IC50 (Cytochrome P450 2A6) was “Not Active” and the Ki (Cytochrome P450 2A6) was “Not Active”.

With `C[C@@H]1[C@H](O)[C@@H](C)/C=C/C=C/C=C/C=C/C=C/C=C/C=C/[C@H](O[C@@H]2O[C@H](C)[C@@H](O)[C@H](N)[C@@H]2O)C[C@@H]2O[C@](O)(C[C@@H](O)C[C@@H](O)[C@H](O)CC[C@@H](O)C[C@@H](O)CC(=O)O[C@H]1C)C[C@H](O)[C@H]2C(=O)O` [AMPHOTERICIN B] the IC50 [1] was “Not Active”, the Ki [1] was “Not Active” and the IC50 [2] was “Not Active”. For the same compound, the IC50 [3] was “Not Active”, the IC50 [4] was “Not Active” and the Ki [4] was “Not Active”. For the same compound, the IC50 (Cytochrome P450 2A6) was “Not Active” and the Ki (Cytochrome P450 2A6) was “Not Active”.

In the case of `Cc1c(N)nc([C@H](CC(N)=O)NC[C@H](N)C(N)=O)nc1C(=O)N[C@H](C(=O)N[C@H](C)[C@@H](O)[C@H](C)C(=O)N[C@H](C(=O)NCCc1nc(-c2nc(C(=O)NCCC[S+](C)C)cs2)cs1)[C@@H](C)O)[C@@H](O[C@@H]1O[C@@H](CO)[C@@H](O)[C@H](O)[C@@H]1O[C@H]1O[C@H](CO)[C@@H](O)[C@H](OC(N)=O)[C@@H]1O)c1c[nH]cn1.[Br-]` [BLEOMYCIN A2], the IC50 [1] is reported as “Not Active”, the Ki [1] is reported as “Not Active” and the IC50 [2] is reported as “Not Active”. The IC50 [3] was “Not Active”, the IC50 [4] was “Not Active” and the Ki [4] was “Not Active”. For the same compound, the IC50 [5] was “Not Active”, the IC50 (Cytochrome P450 2A6) was “Not Active” and the Ki (Cytochrome P450 2A6) was “Not Active”.

In the case of `O=C(O)CNCP(=O)(O)O` [GLYPHOSATE], the IC50 [1] is reported as “Not Active”, the Ki [1] is reported as “Not Active” and the IC50 [2] is reported as “Not Active”. The IC50 [3] was “Not Active”, the IC50 [4] was “Not Active” and the Ki [4] was “Not Active”. For the same compound, the IC50 [5] was “Not Active”.

With `Nc1nc(F)nc2c1ncn2[C@@H]1O[C@H](CO)[C@@H](O)[C@@H]1O` [FLUDARABINE] the IC50 [1] was “Not Active”, the Ki [1] was “Not Active” and the IC50 [2] was “Not Active”. The IC50 [3] was “Not Active”, the IC50 [4] was “Not Active” and the Ki [4] was “Not Active”. The IC50 [5] was “Not Active”, the IC50 (Cytochrome P450 2A6) was “Not Active” and the Ki (Cytochrome P450 2A6) was “Not Active”.

For `NCC(CC(=O)O)c1ccc(Cl)cc1` (configuration not stated) [BACLOFEN], the IC50 [1] was “Not Active”, the Ki [1] was “Not Active” and the IC50 [2] was “Not Active”. The IC50 [3] was “Not Active”, the IC50 [4] was “Not Active” and the Ki [4] was “Not Active”. The IC50 [5] was “Not Active”, the IC50 (Cytochrome P450 2A6) was “Not Active” and the Ki (Cytochrome P450 2A6) was “Not Active”.

In the case of `O=C(Nc1ccc(Cl)c(Cl)c1)c1cc(Cl)cc(Cl)c1O` [3,3',4',5-TETRACHLOROSALICYLANILIDE], the IC50 [1] is reported as “Not Active”, the Ki [1] is reported as “Not Active” and the IC50 [2] is reported as “Not Active”. The IC50 [3] was “Not Active”, the IC50 [4] was “Not Active” and the Ki [4] was “Not Active”. The IC50 ([5]; read-out: IC50) was 886 nM, the IC50 (Cytochrome P450 2A6) was “Not Active” and the Ki (Cytochrome P450 2A6) was “Not Active”.

In the case of `Oc1ccccc1` [PHENOL], the IC50 [1] is reported as “Not Active”, the Ki [1] is reported as “Not Active” and the IC50 [2] is reported as “Not Active”. The IC50 [3] was “Not Active”, the IC50 [4] was “Not Active” and the Ki [4] was “Not Active”. The IC50 [5] was “Not Active”, the IC50 (Cytochrome P450 2A6) was “Not Active” and the Ki (Cytochrome P450 2A6) was “Not Active”.

For `CC(C)NCC(O)COc1ccc(CC(N)=O)cc1` (configuration not stated) [ATENOLOL], the IC50 [1] was “Not Active”, the Ki [1] was “Not Active” and the IC50 [2] was “Not Active”. The IC50 [3] was “Not Active”, the IC50 [4] was “Not Active” and the Ki [4] was “Not Active”. For the same compound, the IC50 [5] was “Not Active”, the IC50 (Cytochrome P450 2A6) was “Not Active” and the Ki (Cytochrome P450 2A6) was “Not Active”.

With `CNC[C@H](O)c1ccc(O)c(O)c1` [EPINEPHRINE] the IC50 [1] was “Not Active”, the Ki [1] was “Not Active” and the IC50 [2] was “Not Active”. For the same compound, the IC50 [3] was “Not Active”, the IC50 [4] was “Not Active” and the Ki [4] was “Not Active”. The IC50 [5] was “Not Active”, the IC50 (Cytochrome P450 2A6) was “Not Active” and the Ki (Cytochrome P450 2A6) was “Not Active”.
